Measured values: publication PMC4669708 (Cell Death & Disease, 2015)

Experiments:
Test in all cases: c-ponatinib pulldown LC-MS/MS
Assay type in all cases: binding
[1] = target: ABL2 (Homo sapiens, UniProt P42684)
How it was run: (§1)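 Whole cell lysate (10 mg) was first passed over immobilized c-ponatinib, and bound proteins were eluted. After reduction, alkylation and tryptic digestion, the peptides were analysed by LC-MS/MS. Finally, binding specificity was assigned by a combined P-value, with or without free-compound competition.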

[2] = target: CDK8 (Homo sapiens, UniProt P49336)
How it was run: as §1

[3] = target: HCK (Homo sapiens, UniProt P08631)
How it was run: as §1

[4] = target: HSPA4 (Homo sapiens, UniProt P34932)
How it was run: as §1

[5] = target: JAK1 (Homo sapiens, UniProt P23458)
How it was run: as §1

[6] = target: MELK (Homo sapiens, UniProt Q14680)
How it was run: as §1

[7] = target: MINK1 (Homo sapiens, UniProt Q8N4C8)
How it was run: as §1

[8] = target: T1, PAG1 (Homo sapiens, UniProt Q9NWQ8)
T1 sequence (Q9NWQ8 1-432): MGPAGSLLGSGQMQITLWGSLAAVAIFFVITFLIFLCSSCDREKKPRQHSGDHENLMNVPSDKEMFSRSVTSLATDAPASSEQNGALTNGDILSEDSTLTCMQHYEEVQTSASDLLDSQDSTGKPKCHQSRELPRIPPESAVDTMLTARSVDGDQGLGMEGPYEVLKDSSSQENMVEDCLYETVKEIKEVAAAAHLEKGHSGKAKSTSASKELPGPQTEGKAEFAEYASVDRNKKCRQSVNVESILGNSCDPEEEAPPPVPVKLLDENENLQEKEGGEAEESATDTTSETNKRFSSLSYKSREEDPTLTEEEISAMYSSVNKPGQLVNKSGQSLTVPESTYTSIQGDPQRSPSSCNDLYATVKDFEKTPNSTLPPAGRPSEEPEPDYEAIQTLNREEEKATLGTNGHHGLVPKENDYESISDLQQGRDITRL
How it was run: as §1

[9] = target: PTK2B (Homo sapiens, UniProt Q14289)
How it was run: as §1

[10] = target: RAF1 (Homo sapiens, UniProt P04049)
How it was run: as §1

[11] = target: UNC119 (Homo sapiens, UniProt Q13432)
How it was run: as §1

MINK1, sequence (Q8N4C8 whole entry): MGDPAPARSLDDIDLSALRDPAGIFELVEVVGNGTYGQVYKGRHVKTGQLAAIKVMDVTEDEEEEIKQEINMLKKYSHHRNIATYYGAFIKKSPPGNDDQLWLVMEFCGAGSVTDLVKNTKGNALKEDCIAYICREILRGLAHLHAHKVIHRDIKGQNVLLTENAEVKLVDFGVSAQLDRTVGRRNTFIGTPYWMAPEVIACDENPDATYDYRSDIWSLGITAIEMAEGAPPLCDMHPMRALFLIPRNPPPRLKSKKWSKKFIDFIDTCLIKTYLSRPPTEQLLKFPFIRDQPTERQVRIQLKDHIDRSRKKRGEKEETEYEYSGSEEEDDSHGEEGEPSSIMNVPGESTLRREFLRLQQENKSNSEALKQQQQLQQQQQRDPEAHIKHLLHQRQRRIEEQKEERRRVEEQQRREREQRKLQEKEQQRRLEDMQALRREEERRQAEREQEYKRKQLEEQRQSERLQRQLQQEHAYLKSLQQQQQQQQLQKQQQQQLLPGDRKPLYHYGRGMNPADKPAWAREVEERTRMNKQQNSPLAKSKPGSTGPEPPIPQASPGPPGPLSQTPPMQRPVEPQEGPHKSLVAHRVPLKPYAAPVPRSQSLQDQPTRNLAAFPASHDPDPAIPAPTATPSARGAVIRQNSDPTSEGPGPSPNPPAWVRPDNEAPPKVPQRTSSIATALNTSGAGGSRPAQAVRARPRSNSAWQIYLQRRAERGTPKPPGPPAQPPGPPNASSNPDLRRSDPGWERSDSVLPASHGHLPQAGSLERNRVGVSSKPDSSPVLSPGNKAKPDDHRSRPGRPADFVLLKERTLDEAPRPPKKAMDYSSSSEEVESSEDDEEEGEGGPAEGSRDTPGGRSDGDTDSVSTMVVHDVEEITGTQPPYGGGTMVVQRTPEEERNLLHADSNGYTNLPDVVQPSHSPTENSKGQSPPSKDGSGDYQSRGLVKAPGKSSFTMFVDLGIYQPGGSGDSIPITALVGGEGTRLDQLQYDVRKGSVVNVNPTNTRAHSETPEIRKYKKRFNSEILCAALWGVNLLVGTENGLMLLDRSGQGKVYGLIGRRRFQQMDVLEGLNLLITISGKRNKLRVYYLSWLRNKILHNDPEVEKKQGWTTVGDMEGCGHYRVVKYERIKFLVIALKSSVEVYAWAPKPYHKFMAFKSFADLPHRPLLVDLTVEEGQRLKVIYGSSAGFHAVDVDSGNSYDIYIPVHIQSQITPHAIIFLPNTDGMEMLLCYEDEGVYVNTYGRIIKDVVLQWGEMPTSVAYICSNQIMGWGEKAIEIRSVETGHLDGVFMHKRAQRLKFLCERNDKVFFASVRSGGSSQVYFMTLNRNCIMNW
CDK8, sequence (P49336 whole entry): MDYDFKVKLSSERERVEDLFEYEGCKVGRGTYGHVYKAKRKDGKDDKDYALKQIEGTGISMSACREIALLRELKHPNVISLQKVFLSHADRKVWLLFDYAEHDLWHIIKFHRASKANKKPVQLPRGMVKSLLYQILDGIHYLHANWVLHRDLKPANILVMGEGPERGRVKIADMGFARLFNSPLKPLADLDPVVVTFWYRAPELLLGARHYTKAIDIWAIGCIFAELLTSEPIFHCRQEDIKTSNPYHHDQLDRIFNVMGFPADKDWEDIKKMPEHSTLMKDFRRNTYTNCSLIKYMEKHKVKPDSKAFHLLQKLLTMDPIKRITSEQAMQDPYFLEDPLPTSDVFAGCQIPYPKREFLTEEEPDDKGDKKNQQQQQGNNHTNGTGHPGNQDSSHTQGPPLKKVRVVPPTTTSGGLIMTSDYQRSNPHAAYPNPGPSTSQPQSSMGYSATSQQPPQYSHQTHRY
CDK8, sequence (P24863 whole entry partner): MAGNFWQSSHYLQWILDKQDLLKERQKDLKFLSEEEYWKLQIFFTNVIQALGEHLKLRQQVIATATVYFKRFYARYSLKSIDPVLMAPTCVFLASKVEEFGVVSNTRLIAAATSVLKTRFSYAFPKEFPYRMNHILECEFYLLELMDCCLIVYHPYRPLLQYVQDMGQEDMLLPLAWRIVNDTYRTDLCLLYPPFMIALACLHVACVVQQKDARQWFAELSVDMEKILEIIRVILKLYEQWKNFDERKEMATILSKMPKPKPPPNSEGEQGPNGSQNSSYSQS
JAK1, sequence (P23458 whole entry): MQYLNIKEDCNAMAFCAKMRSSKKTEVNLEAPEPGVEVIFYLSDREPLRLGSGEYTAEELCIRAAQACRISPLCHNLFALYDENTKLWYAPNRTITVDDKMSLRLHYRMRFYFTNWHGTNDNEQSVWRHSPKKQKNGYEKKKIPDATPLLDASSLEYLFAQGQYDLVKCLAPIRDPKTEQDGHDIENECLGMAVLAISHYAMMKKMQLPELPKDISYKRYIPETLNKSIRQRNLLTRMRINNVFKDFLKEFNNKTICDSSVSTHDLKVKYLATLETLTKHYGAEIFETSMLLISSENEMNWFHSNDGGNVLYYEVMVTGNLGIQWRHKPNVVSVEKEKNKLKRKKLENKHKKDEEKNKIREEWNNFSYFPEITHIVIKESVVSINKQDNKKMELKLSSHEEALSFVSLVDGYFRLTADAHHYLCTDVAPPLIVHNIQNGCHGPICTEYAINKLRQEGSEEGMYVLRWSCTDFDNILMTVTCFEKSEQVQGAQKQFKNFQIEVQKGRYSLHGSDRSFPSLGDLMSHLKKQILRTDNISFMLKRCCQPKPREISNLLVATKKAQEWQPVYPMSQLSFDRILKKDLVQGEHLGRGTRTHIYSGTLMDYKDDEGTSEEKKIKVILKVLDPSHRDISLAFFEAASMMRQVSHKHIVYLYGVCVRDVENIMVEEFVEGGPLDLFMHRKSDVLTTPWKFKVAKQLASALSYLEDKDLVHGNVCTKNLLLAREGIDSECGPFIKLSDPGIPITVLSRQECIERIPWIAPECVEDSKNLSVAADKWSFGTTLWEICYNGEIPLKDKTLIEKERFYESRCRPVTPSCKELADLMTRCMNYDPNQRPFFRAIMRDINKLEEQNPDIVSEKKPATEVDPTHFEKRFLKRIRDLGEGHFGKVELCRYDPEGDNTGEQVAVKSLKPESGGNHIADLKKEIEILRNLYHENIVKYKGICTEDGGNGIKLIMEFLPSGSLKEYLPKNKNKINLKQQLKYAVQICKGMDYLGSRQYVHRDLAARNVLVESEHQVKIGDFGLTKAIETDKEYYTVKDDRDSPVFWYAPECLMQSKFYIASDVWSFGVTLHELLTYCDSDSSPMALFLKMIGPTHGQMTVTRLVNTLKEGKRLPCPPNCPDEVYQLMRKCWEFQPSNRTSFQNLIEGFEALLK
ABL2, sequence (P42684 whole entry): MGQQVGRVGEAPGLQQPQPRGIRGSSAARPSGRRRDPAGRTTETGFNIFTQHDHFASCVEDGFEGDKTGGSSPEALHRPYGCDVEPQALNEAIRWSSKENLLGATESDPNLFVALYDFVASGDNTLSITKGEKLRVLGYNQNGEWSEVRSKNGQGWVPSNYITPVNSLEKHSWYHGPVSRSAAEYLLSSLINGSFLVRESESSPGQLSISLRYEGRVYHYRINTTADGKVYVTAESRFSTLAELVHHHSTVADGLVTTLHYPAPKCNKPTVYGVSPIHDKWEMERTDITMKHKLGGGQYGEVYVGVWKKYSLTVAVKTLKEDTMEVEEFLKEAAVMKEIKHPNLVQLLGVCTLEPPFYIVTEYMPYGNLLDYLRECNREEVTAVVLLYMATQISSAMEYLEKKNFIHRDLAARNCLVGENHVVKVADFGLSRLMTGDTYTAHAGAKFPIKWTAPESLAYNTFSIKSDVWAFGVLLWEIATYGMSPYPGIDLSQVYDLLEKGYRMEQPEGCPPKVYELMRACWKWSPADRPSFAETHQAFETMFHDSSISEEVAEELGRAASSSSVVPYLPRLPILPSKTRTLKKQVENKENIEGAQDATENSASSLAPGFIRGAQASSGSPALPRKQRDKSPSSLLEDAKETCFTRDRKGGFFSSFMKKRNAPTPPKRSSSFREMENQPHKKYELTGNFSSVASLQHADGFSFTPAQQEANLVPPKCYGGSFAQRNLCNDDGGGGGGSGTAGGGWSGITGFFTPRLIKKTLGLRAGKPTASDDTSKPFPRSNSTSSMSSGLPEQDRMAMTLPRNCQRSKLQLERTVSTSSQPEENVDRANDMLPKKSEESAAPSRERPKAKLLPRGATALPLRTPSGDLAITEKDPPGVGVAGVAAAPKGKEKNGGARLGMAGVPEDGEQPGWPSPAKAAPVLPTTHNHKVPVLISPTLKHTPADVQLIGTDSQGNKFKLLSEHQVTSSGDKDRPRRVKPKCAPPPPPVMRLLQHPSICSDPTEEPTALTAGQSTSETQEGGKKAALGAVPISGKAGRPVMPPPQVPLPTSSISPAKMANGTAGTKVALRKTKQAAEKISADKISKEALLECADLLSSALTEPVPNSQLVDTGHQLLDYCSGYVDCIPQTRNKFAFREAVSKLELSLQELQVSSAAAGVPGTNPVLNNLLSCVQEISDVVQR
RAF1, sequence (P04049 whole entry): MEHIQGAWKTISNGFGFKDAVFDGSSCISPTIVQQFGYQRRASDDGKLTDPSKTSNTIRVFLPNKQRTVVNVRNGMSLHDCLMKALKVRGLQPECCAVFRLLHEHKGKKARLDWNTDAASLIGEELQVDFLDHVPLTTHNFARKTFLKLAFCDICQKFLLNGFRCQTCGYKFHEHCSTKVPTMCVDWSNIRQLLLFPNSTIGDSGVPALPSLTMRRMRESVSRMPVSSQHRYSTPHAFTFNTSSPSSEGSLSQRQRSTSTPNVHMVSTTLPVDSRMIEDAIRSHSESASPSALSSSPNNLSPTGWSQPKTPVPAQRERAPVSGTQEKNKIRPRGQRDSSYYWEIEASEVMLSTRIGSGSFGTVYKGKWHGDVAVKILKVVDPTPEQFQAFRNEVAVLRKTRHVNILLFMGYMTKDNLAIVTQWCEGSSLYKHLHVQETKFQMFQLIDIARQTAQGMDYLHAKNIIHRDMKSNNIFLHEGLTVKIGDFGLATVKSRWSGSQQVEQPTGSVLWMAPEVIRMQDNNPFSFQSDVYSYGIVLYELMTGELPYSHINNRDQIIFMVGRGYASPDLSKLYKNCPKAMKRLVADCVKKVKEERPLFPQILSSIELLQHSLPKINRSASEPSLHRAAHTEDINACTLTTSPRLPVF

Av. SC comp. ([1]; + free ponatinib): 0 | Total SC comp. ([1]; + free ponatinib): 0 | Av. SC ([1]; no competitor): 17.25 | Total SC ([1]; no competitor): 69 | Av. SC comp. ([2]; + free ponatinib): 0 | Total SC comp. ([2]; + free ponatinib): 0 | Av. SC ([2]; no competitor): 3.75 | Total SC ([2]; no competitor): 15 | Av. SC comp. ([3]; + free ponatinib): 0 | Total SC comp. ([3]; + free ponatinib): 0 | Av. SC ([3]; no competitor): 6 | Total SC ([3]; no competitor): 24 | Av. SC comp. ([4]; + free ponatinib): 1.75 | Total SC comp. ([4]; + free ponatinib): 7 | Av. SC ([4]; no competitor): 5.5 | Total SC ([4]; no competitor): 22 | Av. SC comp. ([5]; + free ponatinib): 0 | Total SC comp. ([5]; + free ponatinib): 0 | Av. SC ([5]; no competitor): 21.5 | Total SC ([5]; no competitor): 86 | Av. SC comp. ([6]; + free ponatinib): 1 | Total SC comp. ([6]; + free ponatinib): 4 | Av. SC ([6]; no competitor): 5 | Total SC ([6]; no competitor): 20 | Av. SC comp. ([7]; + free ponatinib): 0 | Total SC comp. ([7]; + free ponatinib): 0 | Av. SC ([7]; no competitor): 4 | Total SC ([7]; no competitor): 16 | Av. SC comp. ([8]; + free ponatinib): 0 | Total SC comp. ([8]; + free ponatinib): 0 | Av. SC ([8]; no competitor): 2 | Total SC ([8]; no competitor): 8 | Av. SC comp. ([9]; + free ponatinib): 0 | Total SC comp. ([9]; + free ponatinib): 0 | Av. SC ([9]; no competitor): 32.5 | Total SC ([9]; no competitor): 130 | Av. SC comp. ([10]; + free ponatinib): 0 | Total SC comp. ([10]; + free ponatinib): 0 | Av. SC ([10]; no competitor): 1.25 | Total SC ([10]; no competitor): 5 | Av. SC comp. ([11]; + free ponatinib): 0 | Total SC comp. ([11]; + free ponatinib): 0 | Av. SC ([11]; no competitor): 20.5 | Total SC ([11]; no competitor): 82
Compound: Cc1ccc(C(=O)Nc2ccc(CN3CCN(CCCN)CC3)c(C(F)(F)F)c2)cc1C#Cc1cnc2cccnn12 [c-ponatinib]
